Data reported in patent US20250230193A1, “CYCLIC COMPOUND HAVING SELECTIVE KRAS INHIBITORY EFFECT ON HRAS AND NRAS” (CHUGAI SEIYAKU KABUSHIKI KAISHA, priority 2022, published 2025).
*1 amine or outer side, *2 acyl side, *3 side chain or, on linkers, in order; H or OH if unused. Where a SMILES comes first, the peptide text is derived from it. Bridges are numbered along the chain shown (N, C = ends). [ ]: non-standard residue; d: D form. The star is where a group is joined. X24 = O=C([C@H](Cc1ccc(C(F)(F)F)cc1)N(CCC(F)(F)F)[*:1])[*:2]; hPhe(3-Cl-4-CF3) = N[C@@H](CCc1ccc(C(F)(F)F)c(Cl)c1)C(=O)O; NPrPhe(4-Me) = CCCN[C@@H](Cc1ccc(C)cc1)C(=O)O; NMeGly(cPent) = CN[C@H](C(=O)O)C1CCCC1; NMeD = CN[C@@H](CC(=O)O)C(=O)O; NMeL = CN[C@@H](CC(C)C)C(=O)O; Morpholide = C1CN(*)CCO1; Ac5c = NC1(C(=O)O)CCCC1; NEtG = CCNCC(=O)O; Sar = CNCC(=O)O

Assays:
[1] = target: GDP-bound NRAS wild-type protein (Homo sapiens, UniProt P01111); experiment: Binding to NRAS by surface plasmon resonance (SPR), Single Cycle Kinetics; details: SPR
[2] = target: GDP-bound HRAS wild-type protein (Homo sapiens, UniProt P01112); experiment: Binding to HRAS by surface plasmon resonance (SPR), Single Cycle Kinetics; details: SPR
[3] = KD ratio, GDP-bound NRAS wild-type vs GDP-bound KRAS wild-type
[4] = KD ratio, GDP-bound HRAS wild-type vs GDP-bound KRAS wild-type
[5] = GDP-bound NRAS wild-type vs GDP-bound KRAS wild-type
[6] = GDP-bound HRAS wild-type vs GDP-bound KRAS wild-type

GDP-bound HRAS wild-type protein, sequence (P01112 whole entry): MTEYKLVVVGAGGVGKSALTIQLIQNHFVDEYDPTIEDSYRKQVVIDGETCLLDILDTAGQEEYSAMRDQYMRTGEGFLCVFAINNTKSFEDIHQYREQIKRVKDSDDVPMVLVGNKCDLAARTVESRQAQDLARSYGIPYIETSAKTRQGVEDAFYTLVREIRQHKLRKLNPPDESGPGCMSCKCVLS
GDP-bound NRAS wild-type protein, sequence (P01111 whole entry): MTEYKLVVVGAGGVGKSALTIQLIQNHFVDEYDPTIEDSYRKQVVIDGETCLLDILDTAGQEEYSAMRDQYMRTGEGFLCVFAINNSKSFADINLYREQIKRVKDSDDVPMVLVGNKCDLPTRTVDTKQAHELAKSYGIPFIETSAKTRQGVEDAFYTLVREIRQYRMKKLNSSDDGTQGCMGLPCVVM

Question: Which “NRAS/KRAS (ratio of KD value for NRAS to KD value for KRAS)” value [1, 3] does the source give for `CCO[C@@H]1C[C@H]2C(=O)NC3(CCC3)C(=O)N(C)[C@@H](C(CC)CC)C(=O)N(C)[C@H](CC)CC(=O)N(C)[C@@H](CC3CC3)C(=O)N[C@@H]([C@@H](C)CC)C(=O)N(C)CC(=O)N(C)[C@H]3C/C=C\CCN(C3=O)[C@@H](Cc3ccc(C(F)(F)F)cc3)C(=O)N(C)CC(=O)N[C@@H](CCc3cc(F)c(C(F)(F)F)c(F)c3)C(=O)N2C1` [PP1630] here?
Answer: A (a compound having 10 or more and less than 20 is denoted as A)

Question: What about the “HRAS/KRAS (ratio of KD value for HRAS to KD value for KRAS)” value [2, 4] of the same compound?
Answer: A (a compound having 10 or more and less than 20 is denoted as A)

Question: Which results are given for `CCO[C@@H]1C[C@H]2C(=O)NC3(CCC3)C(=O)N(C)[C@@H](C3CCCC3)C(=O)N(C)[C@H](C(=O)N(C)C)CC(=O)N(C)[C@@H](CC)C(=O)N[C@@H]([C@@H](C)CC)C(=O)NCC(=O)N(C)[C@H]3C/C=C\CCN(C3=O)[C@@H](Cc3ccc(C(F)(F)F)cc3)C(=O)N(C)CC(=O)N[C@@H](CCc3cc(F)c(C(F)(F)F)c(F)c3)C(=O)N2C1` [PP0983]?
Answer: NRAS/KRAS (ratio of KD value with respect to NRAS to KD value with respect to KRAS) [1, 3]: A (a compound having 10 or more and less than 20 is denoted as A); HRAS/KRAS (ratio of KD value with respect to HRAS to KD value with respect to KRAS) [2, 4]: A (a compound having 10 or more and less than 20 is denoted as A)

Question: Which results are given for `CCCN1C(=O)CN(CC)C(=O)CN(C)C(=O)[C@H]([C@@H](C)CC)NC(=O)[C@H](CC(C)C)N(C)C(=O)C[C@@H](C(=O)N2CCOCC2)N(C)C(=O)[C@H](C2CCCC2)N(C)C(=O)C2(CCCC2)NC(=O)[C@@H]2CCCN2C(=O)[C@H](CCc2ccc(C(F)(F)F)c(Cl)c2)NC(=O)CN(C)C(=O)[C@@H]1Cc1ccc(C)cc1` [PP0065] ([NMeL]I[Sar][NEtG][NPrPhe(4-Me)][Sar][hPhe(3-Cl-4-CF3)]P[Ac5c][NMeGly(cPent)][NMeD]-Morpholide; lactam N-11)?
Answer: NRAS/KRAS (ratio of KD for GDP-bound NRAS wild-type to KD for KRAS) [1]: C (A compound having a KD ratio of 0.1 or more and less than 3 is denoted as C); HRAS/KRAS (ratio of KD for GDP-bound HRAS wild-type to KD for KRAS) [2]: C (A compound having a KD ratio of 0.1 or more and less than 3 is denoted as C)

Question: Which “NRAS/KRAS (ratio of KD value with respect to NRAS to KD value with respect to KRAS)” value [1, 5] does the source give for `CCOC[C@H]1C(=O)N[C@@H]([C@@H](C)CC)C(=O)N(C)CC(=O)N(C)[C@H]2C/C=C\CCN(C2=O)[C@@H](Cc2ccc(C)cc2)C(=O)N(C)CC(=O)N[C@@H](CCc2ccc(C(F)(F)F)c(OC)c2)C(=O)N2C[C@H](OCC)C[C@H]2C(=O)NC2(CC(C)(C)C2)C(=O)N(C)[C@@H](C2CCCC2)C(=O)N(C)[C@H](C(=O)N(C)CC)CC(=O)N1C` [PP2445] here?
Answer: A (a compound having 10 or more and less than 20 is denoted as A)

Question: And the “HRAS/KRAS (ratio of KD value with respect to HRAS to KD value with respect to KRAS)” value [2, 6]?
Answer: B (a compound having 3 or more and less than 10 is denoted as B)

Question: Which “NRAS/KRAS (ratio of KD value with respect to NRAS to KD value with respect to KRAS)” value [1, 5] does the source give for `CCO[C@@H]1C[C@H]2C(=O)NC3(CC(C)(C)C3)C(=O)N(C)[C@@H](C(CC)CC)C(=O)N(C)[C@H](C(=O)N(C)C)CC(=O)N(C)[C@@H](C)C(=O)N[C@@H]([C@@H](C)CC)C(=O)N(C)CC(=O)N(C)[C@H]3C/C=C\CCN(C3=O)[C@@H](Cc3ccc(C)cc3)C(=O)N(C)CC(=O)N[C@@H](CCc3ccc(C(F)(F)F)c(Cl)c3)C(=O)N2C1` [PP2150] here?
Answer: AA (a compound having 20 or more is denoted as AA)

Question: And the “HRAS/KRAS (ratio of KD value with respect to HRAS to KD value with respect to KRAS)” value [2, 6]?
Answer: A (a compound having 10 or more and less than 20 is denoted as A)

Question: Which “NRAS/KRAS (ratio of KD value with respect to NRAS to KD value with respect to KRAS)” value [1, 3] does the source give for `CCO[C@@H]1C[C@H]2C(=O)NC3(CCC3)C(=O)N(C)[C@@H](C3CCCC3)C(=O)N(C)[C@H](C(=O)N3CCOCC3)CC(=O)N(C)[C@@H](CC(C)C)C(=O)N[C@@H]([C@@H](C)CC)C(=O)N(C)CC(=O)N(C)[C@H]3CCCCCN(C3=O)[C@@H](Cc3ccc(F)cc3)C(=O)N(C)CC(=O)N[C@@H](CCc3ccc(C(F)(F)F)c(Cl)c3)C(=O)N2C1` [PP0968] here?
Answer: B (a compound having 3 or more and less than 10 is denoted as B)

Question: And the “HRAS/KRAS (ratio of KD value with respect to HRAS to KD value with respect to KRAS)” value [2, 4]?
Answer: B (a compound having 3 or more and less than 10 is denoted as B)

Question: For `CCCOC[C@H]1C(=O)N[C@@H]([C@@H](C)CC)C(=O)N2CCC[C@H]2C(=O)N(C)[C@H]2C/C=C\CCN(C2=O)[C@@H](Cc2ccc(C)cc2)C(=O)N(C)CC(=O)N[C@@H](CCc2ccc(C(F)(F)F)c(OC)c2)C(=O)N2C[C@@H](C)C[C@H]2C(=O)NC2(CC(C)(C)C2)C(=O)N(C)[C@@H](C2CCCC2)C(=O)N(C)[C@H](C(=O)N(C)CC)CC(=O)N1C` [PP2429], which “NRAS/KRAS (ratio of KD value with respect to NRAS to KD value with respect to KRAS)” value [1, 5] is on record?
Answer: A (a compound having 10 or more and less than 20 is denoted as A)

Question: What about the “HRAS/KRAS (ratio of KD value with respect to HRAS to KD value with respect to KRAS)” value [2, 6] of the same compound?
Answer: B (a compound having 3 or more and less than 10 is denoted as B)

Question: Which results are given for `CC[C@H](C)[C@@H]1NC(=O)[C@H](CC(C)C)N(C)C(=O)C[C@@H](C(=O)N2CCOCC2)N(C)C(=O)[C@H](C2CCCCC2)N(C)C(=O)C2(CCCC2)NC(=O)[C@@H]2CCCN2C(=O)[C@H](CCc2cc(F)c(C(F)(F)F)c(F)c2)NC(=O)CN(C)C(=O)[C@H](Cc2ccc(C(F)(F)F)cc2)N2CCCC[C@@H](C2=O)N(C)C(=O)CN(C)C1=O` [PP0567]?
Answer: NRAS/KRAS (ratio of KD value with respect to GDP-bound NRAS wild-type protein to KD value with respect to KRAS) [1]: B (a compound having 3 or more and less than 10 is denoted as B); HRAS/KRAS (ratio of KD value with respect to GDP-bound HRAS wild-type protein to KD value with respect to KRAS) [2]: B (a compound having 3 or more and less than 10 is denoted as B)

Question: For `CC[C@H](C)[C@@H]1NC(=O)[C@H](CC(C)C)N(C)C(=O)C[C@@H](C(=O)N2CCOCC2)N(C)C(=O)[C@H](C2CCCC2)N(C)C(=O)C2(CCC2)NC(=O)[C@]2(C)CCCN2C(=O)[C@H](CCc2cc(F)c(C(F)(F)F)c(F)c2)NC(=O)CN(C)C(=O)[C@H](Cc2ccc(C(F)(F)F)cc2)N2CCCC[C@@H](C2=O)N(C)C(=O)CN(C)C1=O` [PP0808], which “NRAS/KRAS (ratio of KD value with respect to GDP-bound NRAS wild-type protein to KD value with respect to KRAS)” value [1] is on record?
Answer: B (a compound having 3 or more and less than 10 is denoted as B)

Question: What about the “HRAS/KRAS (ratio of KD value with respect to GDP-bound HRAS wild-type protein to KD value with respect to KRAS)” value [2] of the same compound?
Answer: B (a compound having 3 or more and less than 10 is denoted as B)

Question: Which results are given for `CCO[C@@H]1C[C@H]2C(=O)NC3(CC(F)(F)C3)C(=O)N(C)[C@@H](C3CCCC3)C(=O)N(C)[C@H](C(=O)N3CCOCC3)CC(=O)N(C)[C@@H](CC(C)C)C(=O)N[C@@H]([C@@H](C)CC)C(=O)N(C)CC(=O)N(C)[C@H]3C[C@H]4C[C@H]4CN(C3=O)[C@@H](Cc3ccc(C(F)(F)F)cc3)C(=O)N(C)CC(=O)N[C@@H](CCc3cc(F)c(C(F)(F)F)c(F)c3)C(=O)N2C1` [PP0831]?
Answer: NRAS/KRAS (ratio of KD value with respect to NRAS to KD value with respect to KRAS) [1, 3]: C (A compound having a KD ratio of 0.1 or more and less than 3 is denoted as C); HRAS/KRAS (ratio of KD value with respect to HRAS to KD value with respect to KRAS) [2, 4]: C (A compound having a KD ratio of 0.1 or more and less than 3 is denoted as C)

Question: How did the “NRAS/KRAS (ratio of KD for GDP-bound NRAS wild-type to KD for KRAS)” value [1] turn out when `CC[C@H](C)[C@@H]1NC(=O)[C@H](CC(C)C)N(C)C(=O)C[C@@H](C(=O)N2CCOCC2)N(C)C(=O)[C@H](C2CCCC2)N(C)C(=O)C2(CCCC2)NC(=O)[C@@H]2CCCN2C(=O)[C@H](CCc2ccc(C(F)(F)F)c(Cl)c2)NC(=O)CN(C)C(=O)[C@H](Cc2ccc(C(F)(F)F)cc2)N(CCC(F)(F)F)C(=O)CN(C)C(=O)CN(C)C1=O` [PP0131] ([NMeL]I[Sar][Sar][X24][Sar][hPhe(3-Cl-4-CF3)]P[Ac5c][NMeGly(cPent)][NMeD]-Morpholide; lactam N-11) was run?
Answer: B (a compound having 3 or more and less than 10 is denoted as B)

Question: And the “HRAS/KRAS (ratio of KD for GDP-bound HRAS wild-type to KD for KRAS)” value [2]?
Answer: C (A compound having a KD ratio of 0.1 or more and less than 3 is denoted as C)
